Legend:
[1] = system: ovariectomized osteoporosis rat model; assay: serum bone turnover markers by automatic serum biochemical analyzer; format: in vivo, SD rats
Protocol: 1, the construction of ovariectomized rats models: SD rats are kept in a clean environment under a controlled room temperature at 25±2° C. and alternates 12/12 light and dark every day, and the SD rats feed freely. After one week adaptive feeding, randomly select 8 female rats, anesthetize them with 1% (v/v) pentobarbital sodium (40 mg/kg BW), and remove a little fat near ovaries. The remaining 40 rats are ovariectomized after being anesthetized with pentobarbital sodium. The recovery situation is observed in a 4-week recovery period, and their weight changes are detected. These are prepared by the applicant in advance. (any research about metabolic fingerprint changes of ovariectomized osteoporotic rats after intervention with bone peptide have not been reported according to the existing literature). 2, animal grouping and samples collection: the 8 female rats with a little fat near ovaries removed are selected as a sham-operated group, the ovariectomized 40 rats are randomly divided into 5 groups with 8 rats in each group, and are named by a negative control group, a positive control group, a low-concentration treatment group, a medium-concentration treatment group and a high-concentration treatment group. The rats are perfused by different solutions of bovine bone peptide (diluted by ultrapure water, and sterilized) with concentration of 100 mg/kg, 200 mg/kg, and 500 mg/kg according to the weights of the rats. The rats in the negative control group are perfused with equal volume of ultrapure sterile water (a perfusing volume is generally 1-2 mL/100 g BW), and the rats in the positive control group are perfused with 50 μg/kg of 17β-estradiol (ES). Observe weight changes of the rats and measure the weights every two weeks. Urine is automatically collected with a metabolic cage for 12 hours every 4 weeks (the urine is collected as much as possible under the premise of ensuring normal signs of the rats). 1 mmol/L NaN3 solution is added into collected urine as a preservative, the collected urine is placed in a centrifuge at 4° C. and centrifuged at a speed of 10000×g for 10 minutes, and the supernatant is collected, distributed and stored in a refrigerator at −80° C. for determining. The rats are fasted for 12 hours at 4th week, 8th week, and 12th week. Fasted rats are anesthetized by intraperitoneal injection of pentobarbital sodium (40 mg/kg BW) with a volume concentration of 1%, and are subjected to blood collection from the abdominal aorta (the blood is collected as much as possible under the premise of ensuring normal signs of the rats). Collected blood is placed at 4° C. for 3 h and is centrifuged (5000 rpm) for 10 minutes. Upper serum is collected (collecting 2 mL of blood, separating into 4 tubes after separating the serum), is divided into 0.5 mL EP tubes, and stored in a refrigerator at −80° C. for later use. The metabolic cage comprises a cage body with a bottom and a metabolite collecting part. The metabolite collecting part is arranged below the cage body and comprises a barrel 1 and a cover 2 mounted on an upper end of a peripheral wall of a first side of the barrel, an upper end of a peripheral wall of a second side of the barrel is provided with a drainage port, and a solid-liquid separating part is arranged in the barrel. The solid-liquid separating part comprises an arc-shaped partition plate 3 with a first end fixed with a peripheral wall of the barrel and multi-stage filter plates 4, which divide an inner space of the barrel into a first accommodating space and a second accommodating space. The multi-stage filter plates are arranged in the second accommodating space along a vertical direction, and the multi-stage filter plates are successively arranged end to end to form a folded-line diversion channel. A depth of a bottom wall of the barrel from the first side to the second side becomes larger. […]

[2] = system: ovariectomized osteoporosis rat model; assay: non-targeted serum metabolomics (UPLC/Q-TOF-MS); format: in vivo, SD rats; details: ES group vs Model group
Protocol: 1, the construction of ovariectomized rats models: SD rats are kept in a clean environment under a controlled room temperature at 25±2° C. and alternates 12/12 light and dark every day, and the SD rats feed freely. After one week adaptive feeding, randomly select 8 female rats, anesthetize them with 1% (v/v) pentobarbital sodium (40 mg/kg BW), and remove a little fat near ovaries. The remaining 40 rats are ovariectomized after being anesthetized with pentobarbital sodium. The recovery situation is observed in a 4-week recovery period, and their weight changes are detected. These are prepared by the applicant in advance. (any research about metabolic fingerprint changes of ovariectomized osteoporotic rats after intervention with bone peptide have not been reported according to the existing literature).
2, animal grouping and samples collection: the 8 female rats with a little fat near ovaries removed are selected as a sham-operated group, the ovariectomized 40 rats are randomly divided into 5 groups with 8 rats in each group, and are named by a negative control group, a positive control group, a low-concentration treatment group, a medium-concentration treatment group and a high-concentration treatment group. The rats are perfused by different solutions of bovine bone peptide (diluted by ultrapure water, and sterilized) with concentration of 100 mg/kg, 200 mg/kg, and 500 mg/kg according to the weights of the rats. The rats in the negative control group are perfused with equal volume of ultrapure sterile water (a perfusing volume is generally 1-2 mL/100 g BW), and the rats in the positive control group are perfused with 50 μg/kg of 17β-estradiol (ES). Observe weight changes of the rats and measure the weights every two weeks.
Urine is automatically collected with a metabolic cage for 12 hours every 4 weeks (the urine is collected as much as possible under the premise of ensuring normal signs of the rats). 1 mmol/L NaN3 solution is added into collected urine as a preservative, the collected urine is placed in a centrifuge at 4° C. and centrifuged at a speed of 10000×g for 10 minutes, and the supernatant is collected, distributed and stored in a refrigerator at −80° C. for determining. The rats are fasted for 12 hours at 4th week, 8th week, and 12th week. Fasted rats are anesthetized by intraperitoneal injection of pentobarbital sodium (40 mg/kg BW) with a volume concentration of 1%, and are subjected to blood collection from the abdominal aorta (the blood is collected as much as possible under the premise of ensuring normal signs of the rats). Collected blood is placed at 4° C. for 3 h and is centrifuged (5000 rpm) for 10 minutes. Upper serum is collected (collecting 2 mL of blood, separating into 4 tubes after separating the serum), is divided into 0.5 mL EP tubes, and stored in a refrigerator at −80° C. for later use. The metabolic cage comprises a cage body with a bottom and a metabolite collecting part. The metabolite collecting part is arranged below the cage body and comprises a barrel 1 and a cover 2 mounted on an upper end of a peripheral wall of a first side of the barrel, an upper end of a peripheral wall of a second side of the barrel is provided with a drainage port, and a solid-liquid separating part is arranged in the barrel. The solid-liquid separating part comprises an arc-shaped partition plate 3 with a first end fixed with a peripheral wall of the barrel and multi-stage filter plates 4, which divide an inner space of the barrel into a first accommodating space and a second accommodating space. The multi-stage filter plates are arranged in the second accommodating space along a vertical direction, and the multi-stage filter plates are successively arranged end to end to form a folded-line diversion channel. A depth of a bottom wall of the barrel from the first side to the second side becomes larger. […]

[3] = treatment groups and ES group vs Model group
[4] = vs Model group, P<0.05, YBP 100/200/500 mg/kg, ES 50 μg/kg perfused

C[C@]12CC[C@@H]3c4ccc(O)cc4CC[C@H]3[C@@H]1CC[C@@H]2O [ES, 17β-estradiol]
down-regulated trend: serum L-pyroglutamic acid change [2] | serum isoleucine-arginine change [2]
up-regulated trend: serum 1-O-(cis-9-octadecenyl)-2-O-acetyl-sn-glycerol-3-phosphocholine change [2] | serum 1-oleoyl-sn-glycerol-3-phosphocholine change [2] | serum 1-palmitoyl-sn-glycerol-3-phosphocholine change [2] | serum 1-stearoyl-sn-glycerol-3-phosphocholine change [2] | serum L-palmitoyl change [2] | serum pantothenic acid change [2]
significantly increased: content of B-ALP (bone alkaline phosphatase) [1, 4] | content of BGP (bone gamma-carboxyglutamic acid containing proteins) [1, 4]
on a decline trend: content of DPD [1, 3] | content of PINP [1, 3] | content of S-CTX [1, 3] | content of TRAP [1, 3]

Source: US20220308068A1, “BIOMARKER IN OSTEOPOROSIS INTERVENTION THERAPY BY BONE PEPTIDE, SCREENING METHOD AND USE THEREOF” (Institute of Food Science and Technology, Chinese Academy …, priority 2019, published 2022)
